Test results: article PMC9655728, “In Vitro and In Silico Analysis of New n-Butyl and Isobutyl Quinoxaline-7-carboxylate 1,4-di-N-oxide Derivatives against Trypanosoma cruzi as Trypanothione Reductase Inhibitors” (International Journal of Molecular Sciences, 2022)

Assays:
Assay type in all cases: biochemical
[1] = target: T1, trypanothione reductase (TR) (Trypanosoma brucei, UniProt P39051); test: spectrophotometric NADPH consumption ([…] nm) with TS2; Lineweaver-Burk and non-linear regression
T1 construct: gene TPR; recombinant Trypanosoma brucei TR

[2] = target: T2, human glutathione reductase (hGR) (Homo sapiens, UniProt P00390); test: spectrophotometric NADPH consumption ([…] nm) with GSSG; Lineweaver-Burk and non-linear regression
T2 construct: gene GSR; recombinant human glutathione reductase
T2 sequence (P00390 44-522): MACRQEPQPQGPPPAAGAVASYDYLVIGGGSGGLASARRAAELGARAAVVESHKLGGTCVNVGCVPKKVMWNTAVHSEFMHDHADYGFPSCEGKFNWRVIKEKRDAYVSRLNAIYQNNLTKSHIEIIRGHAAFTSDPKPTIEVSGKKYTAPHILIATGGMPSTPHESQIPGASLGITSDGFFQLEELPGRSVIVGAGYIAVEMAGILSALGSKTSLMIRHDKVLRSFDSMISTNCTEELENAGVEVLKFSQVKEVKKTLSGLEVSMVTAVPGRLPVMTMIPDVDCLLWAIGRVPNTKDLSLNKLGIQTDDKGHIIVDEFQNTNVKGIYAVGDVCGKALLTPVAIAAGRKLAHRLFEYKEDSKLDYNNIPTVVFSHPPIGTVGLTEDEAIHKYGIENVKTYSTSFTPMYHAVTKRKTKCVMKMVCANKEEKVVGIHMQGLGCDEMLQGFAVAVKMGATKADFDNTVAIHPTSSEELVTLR

[3] = target: T1, trypanothione reductase (TR); test: spectrophotometric NADPH consumption ([…] nm) with TS2; % inhibition at […] ([…] TS2); conditions: read-out: % Inhibition of TR / 44 μM [TS2]

T1 sequence (P39051 whole entry): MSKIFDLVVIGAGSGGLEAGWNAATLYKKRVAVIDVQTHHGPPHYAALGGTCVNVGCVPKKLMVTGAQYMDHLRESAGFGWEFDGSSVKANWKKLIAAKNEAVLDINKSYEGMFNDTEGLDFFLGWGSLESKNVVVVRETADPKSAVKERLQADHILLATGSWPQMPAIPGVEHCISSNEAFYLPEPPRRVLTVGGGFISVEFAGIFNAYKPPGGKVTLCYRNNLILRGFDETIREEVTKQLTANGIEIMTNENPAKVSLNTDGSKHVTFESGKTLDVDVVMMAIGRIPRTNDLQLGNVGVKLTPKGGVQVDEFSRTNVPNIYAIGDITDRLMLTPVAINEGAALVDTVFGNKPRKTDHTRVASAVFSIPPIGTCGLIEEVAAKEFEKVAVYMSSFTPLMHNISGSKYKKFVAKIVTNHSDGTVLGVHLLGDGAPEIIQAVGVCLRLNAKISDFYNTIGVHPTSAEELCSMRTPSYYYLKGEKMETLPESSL

Row | Structure (SMILES) | Ki [1] [µM] | Ki [2] [µM] | inhibition at 20 µM [3] [%]
1 | CCCCOC(=O)c1ccc2c(c1)[n+]([O-])c(C(=O)C(C)(C)C)c(C(F)(F)F)[n+]2[O-] [T-147] | 11.4 | 25 | 
2 | CCCCOC(=O)c1ccc2c(c1)[n+]([O-])c(C(=O)c1ccccc1)c(C(F)(F)F)[n+]2[O-] [T-148] |  |  | 36
